Where two headings read alike, the source gives them in different places. Blank lines part the entries; values can stand above or below the compound they belong to.
Columns and labels:
[1] = target: T1, hCA IX (Homo sapiens, UniProt Q16790); test: Stopped-flow CO2 hydrase assay, hCA IX; details: selectivity index, ratio of KIs
Experimental: (§3) The uncatalyzed rates were determined in the same manner and subtracted from the total observed rates. Stock solutions of inhibitor (0.1 mM) were prepared in distilled-deionized water and dilutions up to 0.01 nM were done thereafter with the assay buffer. […] The inhibition constants were obtained by nonlinear least-squares methods using PRISM 3 and the Cheng–Prusoff equation, as reported earlier,[39] and represent the mean from at least three different determinations.

[2] = target: T2, hCA II (Homo sapiens, UniProt P00918); test: Stopped-flow CO2 hydrase assay, hCA II; details: for SI CA I/II: selectivity index, ratio of KIs
Experimental: as §3

[3] = target: T3, hCA XII (Homo sapiens, UniProt O43570); test: Stopped-flow CO2 hydrase assay, hCA XII; details: for SI CA I/XII / SI CA II/XII: selectivity index, ratio of KIs
Experimental: as §3

[4] = target: T1, hCA IX; parameters: made in house; method as in Bonardi et al. [29,30]; details: stopped-flow CO2 hydrase assay; Table S1 footnote b; ref Bonardi et al. [29,30]; cited from earlier work
[5] = target: T4, hCA IV (Homo sapiens, UniProt P22748); test: Stopped-flow CO2 hydrase assay, hCA IV; details: for SI CA II/IV / SI CA I/IV: selectivity index, ratio of KIs
Experimental: as §3

[6] = target: T3, hCA XII; parameters: made in house; method as in Bonardi et al. [29,30]; details: stopped-flow CO2 hydrase assay; Table S1 footnote b; ref Bonardi et al. [29,30]; cited from earlier work
[7] = target: T2, hCA II; parameters: made in house; method as in Bonardi et al. [29,30]; details: stopped-flow CO2 hydrase assay; Table S1 footnote b; ref Bonardi et al. [29,30]; cited from earlier work
[8] = target: T5, hCA I (Homo sapiens, UniProt P00915); parameters: made in house; method as in Bonardi et al. [29,30]; details: stopped-flow CO2 hydrase assay; Table S1 footnote b; ref Bonardi et al. [29,30]; cited from earlier work
[9] = target: T4, hCA IV; parameters: made in house; method as in Bonardi et al. [29,30]; details: stopped-flow CO2 hydrase assay; Table S1 footnote b; ref Bonardi et al. [29,30]; cited from earlier work
[10] = tested on: rat model of arthritis induced by the intra-articular injection of complete Freund's adjuvant (CFA); test: Paw pressure test, CFA-induced arthritis; type: in vivo
Experimental: (§1) Articular damage was induced by injection of Complete Freund’s Adjuvant (CFA; Sigma-Aldrich, St Louis, MO, USA), containing 1 mg/mL of heat-killed and dried Mycobacterium tuberculosis in paraffin oil and mannide monooleate, into the tibiotarsal joint.[50] Briefly, the rats were lightly anesthetized with 2% isoflurane, the left leg skin was sterilized with 75% ethyl alcohol, and the lateral malleolus was located by palpation. A 28-gauge needle was then inserted vertically to penetrate the skin and turned distally for insertion into the articular cavity at the gap between the tibiofibular and tarsal bone until a distinct loss of resistance was felt. A volume of 50 μL of CFA was then injected (day 0). Control rats received 50 μL of saline solution (day 0) in the tibiotarsal joint.
(§2) The hybrid derivatives 26, 29, 30, and 31 (1, 10, and 30 mg/kg) were suspended in a 1% solution of carboxymethylcellulose (CMC) sodium salt and acutely per os administered starting from day 14 after CFA i.a. injection, when arthritis was well established. The H2S releaser 3 and CAI 15 were also administered alone or in coadministration at the equimolar dose of compound 30 30 mg/kg (13.23 and 17.71 mg/kg, respectively). The antihypersensitivity effects were evaluated over time by the Paw pressure and Incapacitance tests.
The nociceptive threshold of rats was determined with an analgesimeter (Ugo Basile, Varese, Italy), according to the method described by Leighton et al.[51] and Maresca et al.,[52] (doi: 10.1111/jphp.12828). Briefly, a constantly increasing pressure was applied to a small area of the dorsal surface of the hind paw using a blunt conical probe by a mechanical device. Mechanical pressure was increased until vocalization or a withdrawal reflex occurred while rats were lightly restrained. Vocalization or withdrawal reflex thresholds were expressed in grams. […]

[11] = target: T5, hCA I; test: Stopped-flow CO2 hydrase assay, hCA I
Experimental: as §3

[12] = tested on: rat model of arthritis induced by the intra-articular injection of complete Freund's adjuvant (CFA); test: Incapacitance test, CFA-induced arthritis; type: in vivo
Experimental: as §1, §2
Weight-bearing changes were measured using an incapacitance apparatus (Linton Instrumentation, Norfolk, U.K.) to detect changes in postural equilibrium after a hind limb injury.[53],[54] Rats were trained to stand on their hind paws in a box with an inclined plane (65° from horizontal). This box was placed above the incapacitance apparatus. This allowed us to independently measure the weight that the animal applied on each hind limb. The value reported for each animal is the mean of five consecutive measurements. In the absence of hind limb injury, rats applied an equal weight on both hind limbs, indicating postural equilibrium, whereas an unequal distribution of weight on the hind limbs indicated a monolateral decreased pain threshold. Data are expressed as the difference between the weight applied to the limb contralateral to the injury and the weight applied to the ipsilateral limb (Δ weight).

[13] = tested on: rats; test: Toxicity and Irwin test; type: in vivo, rat; parameters: key to Irwin test: Spontaneous activity / Irwin test: Straightening reflex / Irwin test: Hypo-hyperthermia / Irwin test: Cleaning / Irwin test: Curiosity / Irwin test: Reactivity / Irwin test: Convulsions: observer's semiquantitative score (0 to +4, −4 to 0, or −4 to +4); details: 30 mg/kg
Experimental: Toxicity was evaluated after a single acute administration of 26, 29, 30, and 31 at 30 mg/kg. […] For the Irwin test, each rat was individually placed in a transparent cage (26 × 41 cm), and 26 neurobehavioral or physiological parameters were systematically assessed according to Irwin (1968)[55] and already reported by Berrino and colleagues in similar studies.[30] Behavioral, autonomic, and neurological manifestations produced by compound administration in rats were evaluated: motor displacement, motor reflexes, stereotypies, grooming, reaction to painful or environmental stimuli (analgesia and irritability), startle response, secretions, excretions, respiratory movements, skin color and temperature, piloerection, exophthalmos, eyelid and corneal reflexes, muscle tone, ataxia, tremors, head twitches, jumps, convulsions, Straub tail, and other signs or symptoms. For postural reflexes (righting reflex) and other signs such as piloerection, exophthalmia (exaggerated protrusion of the eyeball), ataxia, tremors, and Straub tail, only presence or absence was recorded. Skin color was evaluated qualitatively (pale, red, or purple); other signs were evaluated semiquantitatively, according to the observer’s personal scale (0 to +4, −4 to 0, or −4 to +4). The terms sedation and excitation express the final interpretation of a group of signs: reduced motor activity, reduced startle response, eyelid ptosis, and reduced response to manual manipulation, for the former; and increased motor activity, increased startle response, increased response to manual manipulation, and exophthalmia, for the latter. Hyperactivity includes running, jumping, and attempting to escape from the container. Trained observers were not informed about the specific treatment of each animal group carried out in this test.

[14] = per os, 3 13.23 mg/kg, 15 17.71 mg/kg
[15] = S.N.C. excitement, limits 0 - 4

T4 sequence (P22748 19-312): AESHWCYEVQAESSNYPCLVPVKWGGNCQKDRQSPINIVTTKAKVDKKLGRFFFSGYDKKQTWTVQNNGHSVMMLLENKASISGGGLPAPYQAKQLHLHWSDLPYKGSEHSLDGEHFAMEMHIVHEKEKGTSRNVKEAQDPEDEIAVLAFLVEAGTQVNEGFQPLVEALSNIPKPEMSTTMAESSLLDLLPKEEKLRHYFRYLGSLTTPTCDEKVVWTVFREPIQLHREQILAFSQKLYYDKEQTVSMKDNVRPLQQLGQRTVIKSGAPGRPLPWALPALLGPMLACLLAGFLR
T3 sequence (O43570 25-354): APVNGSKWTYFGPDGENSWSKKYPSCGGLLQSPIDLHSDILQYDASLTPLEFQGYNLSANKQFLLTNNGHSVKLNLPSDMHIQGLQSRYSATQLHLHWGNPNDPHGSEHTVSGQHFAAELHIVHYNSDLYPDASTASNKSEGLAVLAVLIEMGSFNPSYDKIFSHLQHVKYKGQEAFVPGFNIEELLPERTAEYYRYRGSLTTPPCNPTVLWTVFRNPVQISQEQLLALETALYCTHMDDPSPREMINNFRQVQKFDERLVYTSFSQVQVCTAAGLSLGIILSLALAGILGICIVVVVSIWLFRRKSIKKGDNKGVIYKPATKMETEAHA
T5 sequence (P00915 whole entry): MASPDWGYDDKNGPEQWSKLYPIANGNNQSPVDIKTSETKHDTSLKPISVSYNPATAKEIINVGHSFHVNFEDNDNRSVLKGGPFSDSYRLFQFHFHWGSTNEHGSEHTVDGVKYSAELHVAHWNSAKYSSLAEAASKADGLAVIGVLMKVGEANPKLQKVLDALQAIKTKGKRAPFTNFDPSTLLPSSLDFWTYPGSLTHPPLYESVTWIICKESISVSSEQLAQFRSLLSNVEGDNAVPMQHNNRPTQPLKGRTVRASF

SMILES: NS(=O)(=O)c1ccc(CCNCc2ccccc2)cc1 [Compound 4, 4-(2-(Benzylamino)ethyl)benzenesulfonamide]
Ki [4]: 78.1 nM

SMILES: N#CCCNCCc1ccc(S(N)(=O)=O)cc1 [Compound 18, 4-(2-((2-Cyanoethyl)amino)ethyl)benzenesulfonamide]
Ki [6]: 113 nM
Ki [7]: 154 nM
Ki [8]: 105 nM
SI CA I/IX [1]: 1.0
SI CA II/IX [1]: 1.5
SI CA I/II [2]: 0.7
SI CA I/XII [3]: 0.9
SI CA II/XII [3]: 1.4
Ki [4]: 105 nM
SI CA I/IV [5]: 0.01
SI CA II/IV [5]: 0.02
Ki [9]: 5550 nM

SMILES: NS(=O)(=O)c1ccc(CCN(Cc2cccc3ccccc23)C(=O)c2ccc(-c3cssc3=S)cc2)cc1 [Compound 30, N-(Naphthalen-1-ylmethyl)-N-(4-sulfamoylphenethyl)-4-(3-thioxo-3H-1,2-dithiol-4-yl)benzamide]
antihyperalgesic effect, Paw pressure test, 1 mg/kg ([10]; 1 mg/kg per os): ineffective
antihyperalgesic effect, Paw pressure test, 30 mg/kg ([10]; 30 mg/kg per os, day 14 after CFA): greater antihyperalgesic action with respect to 3, 15, and their co-administration
weight tolerated on the ipsilateral paw, Paw pressure test, 10 and 30 mg/kg ([10]; 10 and 30 mg/kg per os, from 15 min up to 45 min after treatment, vs CFA-treated animals): significantly increased the weight tolerated
Irwin test: Cyanosis ([13]; Autonomic signes, limits 0 - 4): 0
Irwin test: Exolphthalmos ([13]; Autonomic signes, limits 0 - 4): 0
Irwin test: Flush ([13]; Autonomic signes, limits 0 - 4): 0
Irwin test: Lacrimation ([13]; Autonomic signes, limits 0 - 4): 0
Irwin test: Pallor ([13]; Autonomic signes, limits 0 - 4): 0
Irwin test: Piloerection ([13]; Autonomic signes, limits 0 - 4): 0
Irwin test: Salivation ([13]; Autonomic signes, limits 0 - 4): 0
Irwin test: Writhing ([13]; Autonomic signes, limits 0 - 4): 0
Irwin test: Palpebral opening ([13]; Autonomic signes, limits 4 - 0): 4
Irwin test: Hypo-hyperthermia ([13]; Autonomic signes, limits -4/+4): 0
Irwin test: Passivity ([13]; Behaviour, limits 0 - 4): 0
Irwin test: Vocalization ([13]; Behaviour, limits 0 - 4): 0
Irwin test: Cleaning ([13]; Behaviour, limits 4 - 0): 0
Irwin test: Curiosity ([13]; Behaviour, limits 4 - 0): 4
Irwin test: Reactivity ([13]; Behaviour, limits 4 - 0): 4
Irwin test: Spontaneous activity ([13]; Behaviour, limits 4 - 0): 4
Irwin test: Ataxia ([13]; Movement, limits 0 - 4): 0
Irwin test: Stereotipies ([13]; Movement, limits 0 - 4): 0
Irwin test: Straightening reflex ([13]; Movement, limits 4 - 0): 4
Irwin test: Physical strenght ([13]; Muscolar tone, limits 4 – 0): 4
Irwin test: Palpebral reflex ([13]; Reflexes, limits 4 - 0): 4
Irwin test: Straub tail [13, 15]: 0
Irwin test: Tremors [13, 15]: 0
Irwin test: Convulsions ([13]; S.N.C. excitement, limits 4 - 0): 0
Irwin test: Delayed death (48 h) ([13]; Toxicity, limits 0 - 4): 0
Irwin test: Immediate death ([13]; Toxicity, limits 0 - 4): 0
SI CA I/IX [1]: >641
SI CA II/IX [1]: 286
SI CA I/XII [3]: >1428
SI CA II/XII [3]: 637
effect of the lowest dose, Incapacitance test ([12]; 1 mg/kg per os): ineffective
reduction of spontaneous pain, Incapacitance test ([12]; single per os, 1 to 30 mg/kg, day 14 after CFA): slightly greater efficacy at 10 mg/kg in comparison to the dose of 30 mg/kg
SI CA I/IV [5]: >41.0
SI CA II/IV [5]: 18.3

Further lines, with some results ahead:

SI CA I/IX [1]: 2.7
SI CA I/II [2]: 3.1
SI CA I/XII [3]: 2.6
SI CA II/XII [3]: 0.9
SI CA II/IV [5]: 0.02
SMILES: NS(=O)(=O)c1ccc(CCNCCc2ccccc2)cc1 [Compound 17, 4-(2-(Phenethylamino)ethyl)benzenesulfonamide]
Ki [4]: 102 nM

Ki [11]: 261 nM
SI CA I/IX [1]: 5.8
SI CA II/IX [1]: 4.0
Ki [2]: 178 nM
SI CA I/II [2]: 1.5
Ki [3]: 54.7 nM
SI CA I/XII [3]: 4.8
SI CA II/XII [3]: 3.2
Ki [5]: 3010 nM
SI CA II/IV [5]: 0.06
SMILES: NS(=O)(=O)c1ccc(CCNCc2cccc3ccccc23)cc1 [Compound 15, 4-(2-((Naphthalen-1-ylmethyl)amino)ethyl)benzenesulfonamide]
antihyperalgesic effect, Paw pressure test, dose equimolar to 30 30 mg/kg [10, 14]: very weak antihyperalgesic action
antihyperalgesic effect, Incapacitance test, dose equimolar to 30 30 mg/kg [12, 14]: absence of effects detected in vivo

SI CA I/IX [1]: 2.5
SI CA II/IX [1]: 1.4
SI CA I/II [2]: 1.9
SI CA I/XII [3]: 2.9
SI CA II/XII [3]: 1.6
SI CA I/IV [5]: 0.1
SI CA II/IV [5]: 0.07
SMILES: NS(=O)(=O)c1ccc(CCNCc2ccc([N+](=O)[O-])cc2)cc1 [Compound 10, 4-(2-((4-Nitrobenzyl)amino)ethyl)benzenesulfonamide]
Ki [4]: 89.2 nM

SI CA I/IX [1]: 2.0
SI CA II/IX [1]: 1.4
SI CA I/II [2]: 1.4
SI CA I/XII [3]: 1.9
SI CA II/XII [3]: 1.3
SI CA I/IV [5]: 0.09
SI CA II/IV [5]: 0.06
SMILES: NS(=O)(=O)c1ccc(CCNCc2ccc(F)cc2)cc1 [Compound 5, 4-(2-((4-Fluorobenzyl)amino)ethyl)benzenesulfonamide]
Ki [4]: 56.5 nM

From publication PMC9574929, “Development of Hydrogen Sulfide-Releasing Carbonic Anhydrases IX- and XII-Selective Inhibitors with Enhanced Antihyperalgesic Action in a Rat Model of Arthritis” (Journal of Medicinal Chemistry, 2022)
